The text below walks through data of the NIST ThermoML archive (doi:10.1021/acs.jced.6b00688).

Numbers after ± are expanded uncertainties.

For the data set the following is noted: for viscosity / mass density: 101.33 kPa, Liquid; for viscosity: Falling or rolling sphere viscometry; for mass density: Vibrating tube method; for Normal melting temperature: Crystal, DTA.

Turning to `CCCCCCCCCCCC` [dodecane], the Normal melting temperature is -8.20 ± 6 °C. Moreover, for the setting “293.15 K”, the viscosity (in general, the internal friction of a fluid under shear) is 1.485 ± 0.032 mPa·s and the mass density (commonly mass per unit of volume) was 748.82 ± 1.5 kg/m3. Moreover, for the setting “298.15 K”, the viscosity was 1.359 ± 0.029 mPa·s and the mass density is 745.2 ± 1.5 kg/m3. Moreover, under “303.15 K”, the viscosity is 1.25 ± 0.027 mPa·s and the mass density was determined as 741.57 ± 1.5 kg/m3. Where the note is “308.15 K”, the viscosity turned out to be 1.155 ± 0.025 mPa·s and the mass density is given as 737.94 ± 1.5 kg/m3. For the same compound, for the setting “313.15 K”, the viscosity stood at 1.073 ± 0.023 mPa·s and the mass density worked out at 734.3 ± 1.5 kg/m3. In addition, under “318.15 K”, the viscosity was determined as 0.998 ± 0.022 mPa·s and the mass density is reported as 730.64 ± 1.5 kg/m3. Besides, for the setting “323.15 K”, the viscosity is given as 0.932 ± 0.02 mPa·s and the mass density was 726.98 ± 1.5 kg/m3. Further, under “328.15 K”, the viscosity stood at 0.873 ± 0.019 mPa·s and the mass density worked out at 723.31 ± 1.5 kg/m3. For the same compound, under “333.15 K”, the viscosity is on record as 0.819 ± 0.018 mPa·s and the mass density is 719.64 ± 1.4 kg/m3.
As for `OCC1CCCCC1` [cyclohexylmethanol], the viscosity by setting is: (293.15 K) 36.96 ± 0.79 mPa·s; (298.15 K) 28.35 ± 0.61 mPa·s; (303.15 K) 22.04 ± 0.47 mPa·s; (308.15 K) 17.32 ± 0.37 mPa·s; (313.15 K) 13.83 ± 0.3 mPa·s; (318.15 K) 11.14 ± 0.24 mPa·s. The viscosity amounted to 9.099 ± 0.2 mPa·s (323.15 K), 7.521 ± 0.16 mPa·s (328.15 K) and 6.283 ± 0.14 mPa·s (333.15 K). Further, the mass density (293.15 K) is on record as 929.96 ± 1.9 kg/m3; the mass density (298.15 K) worked out at 926.43 ± 1.9 kg/m3; the mass density (303.15 K) amounted to 922.87 ± 1.9 kg/m3; the mass density (308.15 K) is given as 919.28 ± 1.8 kg/m3; the mass density (313.15 K) is given as 915.66 ± 1.8 kg/m3; the mass density (318.15 K) turned out to be 912 ± 1.8 kg/m3. Besides, the mass density was determined as 908.31 ± 1.8 kg/m3 (323.15 K), 904.57 ± 1.8 kg/m3 (328.15 K) and 900.78 ± 1.8 kg/m3 (333.15 K).
Consider `CCCCCCCO` [heptan-1-ol], for which the Normal melting temperature is -34.10 ± 6 °C. Moreover, where the note is “293.15 K”, the viscosity worked out at 6.89 ± 0.15 mPa·s and the mass density is reported as 822.24 ± 1.6 kg/m3. Moreover, where the note is “298.15 K”, the viscosity amounted to 5.805 ± 0.12 mPa·s and the mass density is 818.74 ± 1.6 kg/m3. For the same compound, under “303.15 K”, the viscosity is reported as 4.941 ± 0.11 mPa·s and the mass density is recorded as 815.22 ± 1.6 kg/m3. Further, where the note is “308.15 K”, the viscosity was 4.233 ± 0.09 mPa·s and the mass density was found to be 811.68 ± 1.6 kg/m3. Moreover, where the note is “313.15 K”, the viscosity came to 3.648 ± 0.077 mPa·s and the mass density came out at 808.11 ± 1.6 kg/m3. Moreover, under “318.15 K”, the viscosity is 3.165 ± 0.067 mPa·s and the mass density is 804.52 ± 1.6 kg/m3. For the same compound, where the note is “323.15 K”, the viscosity worked out at 2.762 ± 0.059 mPa·s and the mass density is reported as 800.88 ± 1.6 kg/m3. Further, under “328.15 K”, the viscosity is on record as 2.423 ± 0.051 mPa·s and the mass density worked out at 797.2 ± 1.6 kg/m3. Also, under “333.15 K”, the viscosity stood at 2.137 ± 0.045 mPa·s and the mass density is listed as 793.49 ± 1.6 kg/m3.
`CC1CCCCC1` [methylcyclohexane]: the Normal melting temperature was -125.30 ± 6 °C. Besides, where the note is “293.15 K”, the viscosity worked out at 0.727 ± 0.016 mPa·s and the mass density amounted to 769.33 ± 1.5 kg/m3. Under “298.15 K”, the viscosity amounted to 0.681 ± 0.015 mPa·s and the mass density came to 765 ± 1.5 kg/m3. Under “303.15 K”, the viscosity is given as 0.64 ± 0.014 mPa·s and the mass density is given as 760.67 ± 1.5 kg/m3. Under “308.15 K”, the viscosity is on record as 0.604 ± 0.013 mPa·s and the mass density came out at 756.32 ± 1.5 kg/m3. Besides, where the note is “313.15 K”, the viscosity is 0.571 ± 0.012 mPa·s and the mass density was 751.95 ± 1.5 kg/m3. Moreover, for the setting “318.15 K”, the viscosity turned out to be 0.542 ± 0.012 mPa·s and the mass density came out at 747.56 ± 1.5 kg/m3. Also, for the setting “323.15 K”, the viscosity came out at 0.515 ± 0.011 mPa·s and the mass density was determined as 743.15 ± 1.5 kg/m3. Also, under “328.15 K”, the viscosity is 0.491 ± 0.011 mPa·s and the mass density is given as 738.73 ± 1.5 kg/m3. In addition, under “333.15 K”, the viscosity came out at 0.469 ± 0.01 mPa·s and the mass density came out at 734.28 ± 1.5 kg/m3.
